Source: US20030211075A1 (priority 2001, published 2003)
Changes are numbered by the printed parent chain. Names and notes keep the numbering of the source.

Columns and labels:
[1] = progressive disease before treatment; cited from earlier work
[2] = test system: Mouse bEnd.3 endothelial cells; assay: PS translocation and viability of endothelial cells exposed to H2O2; type: cell-based
Protocol: Mouse bEnd.3 endothelial cells were seeded at an initial density of 50,000 cells/well. Twenty-fours later cells were incubated with increasing concentrations of H2O2 (from 10 μM to 500 μM) for 1 hour at 37° C, or left untreated. At the end of the incubation, cells were washed 3 times with PBS containing 0.2% gelatin and fixed with 0.25% glutaraldehyde. Identical wells were either stained with anti-PS IgM or trypsinized and evaluated for viability by the Trypan Blue exclusion test. For the anti-PS staining, after blocking with 2% gelatin for 10 min., cells were incubated with 2 μg/ml of anti-PS antibody, followed by detection with anti-mouse IgM-HRP conjugate.

[3] = test system: L540 human Hodgkin's disease tumors; assay: L540 tumors, immunoglobulin-tTF conjugate with etoposide; settings: mouse, in vivo
Protocol: The tumor test systems were: i) L540 human Hodgkin's disease tumors growing in SCID mice; ii) C1300 Muγ (interferon-secreting) neuroblastoma growing in nu/nu mice; iii) H460 human non-small cell lung carcinoma growing in nu/nu mice. To establish solid tumors, 1.5×10^7 tumor cells were injected subcutaneously into the right anterior flank of SCID or BALB/c nu/nu mice (Charles River Labs., Wilmingham, Mass.). When the tumors had grown to various diameters, mice were assigned to different experimental groups, each containing 4 to 9 mice.
Mice bearing L540 human Hodgkin's disease tumors were treated with a complex of tTF219 and a bispecific antibody together with the anti-cancer drug, etoposide, at a conventional dose.

[4] = test system: HT29 human colorectal carcinoma; assay: HT29 xenograft, tumor growth and necrosis after tTF constructs and Factor VIIa; type: in vivo, mouse; settings: mouse, in vivo, iv
[5] = cited from earlier work
[6] = Toxicity to mice of agents given separately; settings: mouse, in vivo
[7] = target: human endoglin (human) (UniProt P17813); assay: in vivo localization, human/SCID animal with human skin graft containing a tumor, overnight
Sequence of human endoglin (human) (P17813 26-658): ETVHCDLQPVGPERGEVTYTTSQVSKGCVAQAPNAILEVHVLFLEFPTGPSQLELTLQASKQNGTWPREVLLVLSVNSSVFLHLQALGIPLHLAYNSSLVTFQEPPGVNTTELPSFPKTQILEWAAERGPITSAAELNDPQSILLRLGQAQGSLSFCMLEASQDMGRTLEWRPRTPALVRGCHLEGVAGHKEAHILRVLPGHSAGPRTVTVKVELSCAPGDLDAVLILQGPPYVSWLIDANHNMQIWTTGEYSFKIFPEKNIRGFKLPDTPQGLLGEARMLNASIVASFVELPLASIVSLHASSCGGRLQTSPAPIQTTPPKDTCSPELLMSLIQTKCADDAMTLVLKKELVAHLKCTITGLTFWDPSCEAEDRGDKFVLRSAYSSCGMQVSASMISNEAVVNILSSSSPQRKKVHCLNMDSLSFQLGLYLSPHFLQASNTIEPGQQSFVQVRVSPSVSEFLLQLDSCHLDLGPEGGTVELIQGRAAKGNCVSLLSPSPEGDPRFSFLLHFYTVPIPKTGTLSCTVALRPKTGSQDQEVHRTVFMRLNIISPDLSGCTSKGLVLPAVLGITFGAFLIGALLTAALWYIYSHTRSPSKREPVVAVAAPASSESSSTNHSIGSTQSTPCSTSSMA

[8] = test system: HUVEC cells; assay: FACS analysis of tissue factor expression on endothelial cells; type: cell-based, human; settings: TNFα 500 U/ml, LPS 10 μg/ml, VEGF 1 nM, 6 h
Protocol: To analyze tissue factor expression on the surface of endothelial cells, HUVEC cells were incubated with TNFα (500 U/ml), LPS (10 μg/ml) or vascular endothelial growth factor (VEGF, 1 nM) alone or in combination for 6 h at 37°. Cells were then detached and stained for surface expression of human tissue factor with a sheep-anti-human tissue factor antibody (Haemochrom. Essen. Germany) and an appropriate FITC-conjugated secondary antibody. Fluorescent cells were detected on a flow cytometer (Becton Dickinson, San Jose, Calif.).

[9] = test system: VCAM-1; assay: FACS for upregulation of VCAM-1 on endothelial cells; type: cell-based, mouse
Protocol: (§1) Mouse endothelial cells were seeded in 48 well tissue culture plates and allowed to adhere overnight. Cells were stimulated with TNFα at the following concentrations: 500 U/ml; 100 U/ml; 20 U/ml; 4 U/ml; 0.8 U/ml; 0.16 U/ml; and with medium only.
Endothelial cells were then investigated for upregulation of the adhesion molecule VCAM-1 by fluorescence activated cell stain (FACS). To this end, cells were stained with an antibody against murine VCAM-1, followed by an appropriate FITC-conjugated secondary antibody. Fluorescent cells were detected on a flow cytometer (Becton Dickinson, San Jose, Calif.).

[10] = test system: Mouse endothelial cells; assay: Cell based two stage coagulation assay after TNFα
Protocol: as §1
Endothelial cells were also tested for coagulant activity in a cell based two stage coagulation assay. After incubation with TNFα, cells were washed and incubated with coagulation factor mix (0.5 μg/ml factor VIIa in a mix containing 2.8 μg/ml factor IX, 3.4 μg/ml factor X, 50 μM phospholipids, in calcium buffer). The supernatant of wells was transferred into a 96 well ELISA plate. Substrate S2765 was added and Factor Xa generation measured.

[11] = in vivo; cited from earlier work
[12] = target: T1, recombinant human VEGF (VEGF165) (human, UniProt P15692-4 27-191); assay: competition ELISA, 1 nM VEGF on VEGFR1 (Flt-1/Fc) wells, 100 fold molar excess of 2C3
T1 construct: Dimeric VEGF seen at about 42 kd on blots; also called huVEGF; free VEGF
T1 sequence (P15692 other isoform, or with tags, fused parts or gaps limits assumed): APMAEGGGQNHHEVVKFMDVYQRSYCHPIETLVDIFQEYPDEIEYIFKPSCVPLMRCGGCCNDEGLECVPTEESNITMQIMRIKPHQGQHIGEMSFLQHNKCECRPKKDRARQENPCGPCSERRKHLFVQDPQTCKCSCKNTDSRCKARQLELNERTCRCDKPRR

[13] = target: T1, recombinant human VEGF (VEGF165); assay: competition ELISA, 1 nM VEGF on VEGFR1 (Flt-1/Fc) wells, 1000 fold molar excess of 2C3
[14] = test system: IL-1α-stimulated bEnd.3 cells; assay: Chromogenic assay of Factor Xa formation induced by cell-bound coaguligand; type: cell-based, mouse; settings: 10 μg per ml Annexin V
Protocol: The ability of Annexin V to affect Factor Xa formation induced by coaguligand was determined by a chromogenic assay. […] Annexin V was added at concentrations ranging from 0.1 to 10 μg/ml and cells were incubated for 30 min, before addition of diluted Proplex T. The amount of Factor Xa generated in the presence or absence of Annexin V was determined. Each treatment was performed in duplicate and repeated at least twice.

[15] = test system: L540 Hodgkin-bearing SCID mice; assay: Annexin V inhibition of coaguligand-induced thrombosis in vivo; set-up: species or system mouse
Protocol: The ability of Annexin V to inhibit coaguligand-induced thrombosis in vivo was examined in L540 Hodgkin-bearing SCID mice.
Four hours after the last injection mice were anesthetized and perfused with heparinized saline. Tumors were removed, fixed with 4% formalin, paraffin-embedded and stained with hematoxylene-eosin. The number of thrombosed and non-thrombosed blood vessels were counted and the percentage of thrombosis was calculated.

Molecule: NC(=O)c1nnn(Cc2cc(Cl)c(C(=O)c3ccc(Cl)cc3)c(Cl)c2)c1N [CAI, carboxyamidotriazole]
- disease stabilization, share of cancer patients [1]: 49%

Molecule: OO [H2O2]
- cells with PS at the cell surface ([2]; H2O2 as low as 20 μM): about 50%
- cells with PS translocation ([2]; H2O2 higher than 100 μM, 1 hour): ~90%
- cell viability ([2]; low levels of H2O2 (lower than 100 μM), identical to untreated cells): 95%

Molecule: COc1cc([C@@H]2c3cc4c(cc3[C@@H](O[C@@H]3O[C@@H]5CO[C@@H](C)O[C@H]5[C@H](O)[C@H]3O)[C@H]3COC(=O)[C@H]23)OCO4)cc(OC)c1O [etoposide]
- average tumor volume, day 14 [3]: 1400 mm^3

Molecule: Factor VIIa: activated coagulation Factor VII, recombinant human
- average area of necrosis in tumor sections [4]: some necrosis
- half-life in vivo [5]: approximately two hours
- toxicity when given separately [6]: practically non-toxic to mice

Molecule: TEC-11 anti-human endoglin antibody
- % of blood vessels in the tumor periphery to which the antibody localized [7]: 84%
- % of blood vessels throughout the tumor to which the antibody localized [7]: 46%

Molecule: TNFα
- tissue factor expression on the surface of HUVEC [8]: upregulated tissue factor expression
- TNFα required for measurable increase of VCAM-1 expression [9]: 20 U/ml
- TNFα at which an increase over negative control was detected in the coagulation assay [10]: 0,16 U/ml
- dose for procoagulant effect, fold lower than for VCAM-1 increase [10]: 125 fold

Molecule: VEGF
- tissue factor expression on the surface of HUVEC [8]: upregulated tissue factor expression

Molecule: monophosphoryl lipid A [MPL]
- dose known to be safe for human use [11]: 100 μg/m^2

B1: tTF219 (G164A): tTF219 with amino acid 164 (Gly) replaced by Ala (protein)
chain: GSGTTNTVAAYNLTWKSTNFKTILEWEPKPVNQVYTVQISTKSGDWKSKCFYTTDTECDLTDEIVKDVKQTYLARVFSYPAGNVESTGSAGEPLYENSPEFTPYLETNLGQPTIQSFEQVGTKVNVTVEDERTLVRRNNTFLSLRDVFGKDLIYTLYYWKSSSSAKKTAKTNTNEFLIDVDKGENYCFSVQAVIPSRTVNRKSTDSPVECMGQEKGEFRE
- average area of necrosis in tumor sections [4]: some necrosis
- toxicity when given separately [6]: practically non-toxic to mice

B2: tTF219 (W158R) (protein)
chain: B1 chain with W159R, A165G
- toxicity when given separately [6]: practically non-toxic to mice

B3: 2C3 anti-VEGF antibody (antibody, V domains shown)
VH: QVQLQESGPELVKPGASVKMSCKASGYTFTSYVFHWVKQKPGQGLEWIGYINPYNDVTKYNEKFKGKATLTSDKSSSTAYMELSSLTSEDSAVYYCASYYGSSYGYYAMDDWGQGTTVTVSS
VL: DIQLTQSPASLSVSAGEKVTMSCKSSQSLLNSGNQKNYLAWYQQKPGQPPKLLIHGASTRESGVPDRFTGSGSGTDFTLTISSVQAEDLAVYYCQNDYSYPLTFGAGTKLELKR
- % of VEGF bound to VEGFR1-coated wells relative to the amount bound without 2C3 [12]: 92%
- % of VEGF bound to VEGFR1-coated wells relative to the amount bound without 2C3 [13]: 105%

B4: Annexin V: protein that binds to PS with high affinity (protein, UniProt P08758 2-320, looked up)
Annexin A5: AQVLRGTVTDFPGFDERADAETLRKAMKGLGTDEESILTLLTSRSNAQRQEISAAFKTLFGRDLLDDLKSELTGKFEKLIVALMKPSRLYDAYELKHALKGAGTNEKVLTEIIASRTPEELRAIKQVYEEEYGSSLEDDVVGDTSGYYQRMLVVLLQANRDPDAGIDEAQVEQDAQALFQAGELKWGTDEEKFITIFGTRSVSHLRKVFDKYMTISGFQIEETIDRETSGNLEQLLLAVVKSIRSIPAYLAETLYYAMKGAGTDDHTLIRVMVSRSEIDLFNIRKEFRKNFATSLYSMIKGDTSGDYKKALLLLCGEDD
- inhibition of factor Xa production [14]: 58%
- coaguligand-induced thrombosis and changes in tumor cell morphology after Annexin V pre-treatment ([15]; 100 μg Annexin V 2 hours before 40 μg anti-VCAM-1•tTF): completely abolished
- tumor morphology ([15]; 100 μg Annexin V alone): did not alter tumor morphology
